Measurements from patent publication US11845724B2, “USP30 inhibitors and uses thereof” (Vincere Biosciences, Inc., priority 2019, dated 2023).
Read-outs that look alike come from different tables or passages of the source.

Assays:
USP30 [1] = target: T1, USP30 (Homo sapiens (Human), UniProt Q70CQ3); test: Dundee MALDI-TOF mass spectrometry assay (IC50); format: biochemical; conditions: USP30 25 ng/μl, K48-linked diubiquitin 5.6 μM
Method in brief: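 USP30 (25 ng/μl) preincubated with compound 5 min at RT in Tris/BSA/DTT buffer, then K48-linked diubiquitin (5.6 μM) added for 45 min at RT. Stopped with 2% TFA; cleavage quantified by MALDI-TOF mass spectrometry to give IC50.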

USP30 [2] = target: T1, USP30; test: Dundee MALDI-TOF mass spectrometry assay (% DUB activity remaining at 1 μM); format: biochemical; conditions: % DUB activity remaining at compound concentration of 1 μM; avg; read-out: Dundee % Activity at 1 μM (avg in vitro MS assay)
Procedure: Compounds were tested in a MALDI-TOF assay based on the paper by Ritorto et al. (Ritorto et al. Screening of DUB activity and specificity by MALDI-TOF mass spectrometry. Nat. Commun. 5:4763).
USP30 (25 ng/μl) tested against K48-linked diubiquitin (5.6 μM). USP30 was diluted in a buffer containing 40 mM Tris, 0.01% BSA, 1 mM DTT and K48 in 40 mM Tris, 0.01% BSA.
The compounds were pre-incubated with the USP30 for 5 mins at room temp before the K48 dimer addition. The assay mixture was then incubated for 45 mins at room temp. The assay was stopped by the addition of TFA to a final concentration of 2% (v/v).
Acidified samples of the DUB assays were mixed with 0.5 mM 15N-ubiquitin and then with one part of 2% (v/v) TFA and one part of 2,5 DHAP matrix solution (7.6 mg of 2,5 DHAP in […] ethanol and […] of an aqueous 12 mg ml 1 diammonium hydrogen citrate). Then 250 nl of these solutions were spotted onto an MTP AnchorChip 1,536 TF and this is analysed on the Bruker rapifleX MALDI-TOF.
Table 22 presents the Dundee MALDI-TOF values expressed as % DUB activity remaining at a compound concentration of 1 μM.

[3] = target: recombinant USP30 (amino acids 57-517 of the human sequence) (Homo sapiens (Human), UniProt Q70CQ3); test: In vitro USP30 biochemical assay (Ubiquitin-Rhodamine)
Sequence of recombinant USP30 (amino acids 57-517 of the human sequence) (Q70CQ3 57-517): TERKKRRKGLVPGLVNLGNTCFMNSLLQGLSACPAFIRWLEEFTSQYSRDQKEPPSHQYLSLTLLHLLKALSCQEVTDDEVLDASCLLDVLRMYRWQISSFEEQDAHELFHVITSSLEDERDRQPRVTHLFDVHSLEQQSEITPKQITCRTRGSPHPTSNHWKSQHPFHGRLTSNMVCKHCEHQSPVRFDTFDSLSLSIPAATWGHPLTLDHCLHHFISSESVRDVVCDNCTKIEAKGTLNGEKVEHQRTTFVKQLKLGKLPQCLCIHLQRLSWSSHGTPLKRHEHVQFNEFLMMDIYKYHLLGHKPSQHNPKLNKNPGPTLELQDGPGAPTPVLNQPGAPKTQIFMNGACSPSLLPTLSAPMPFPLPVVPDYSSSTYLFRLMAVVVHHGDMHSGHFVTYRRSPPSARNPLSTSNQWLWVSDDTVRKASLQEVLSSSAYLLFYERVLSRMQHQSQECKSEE
Procedure: In vitro biochemical assay to establish the potency of compounds for USP30 inhibition: a 384-well plate assay using a fluorophore tagged substrate of USP30 was used for in vitro screening of compounds. Each compound was tested at 10 different concentrations (0.5 to 10,000 nM) in duplicate wells. Compounds were pre-incubated at 25° C. for 30 min in an assay buffer consisting of 20 mM Tris/HCl, pH8.0, 1 mM GSH, 0.01% Triton X-100, 0.03% BGG and 1.5 nM recombinant USP30 (amino acids 57-517 of the human sequence with a C-terminal 6-His tag). Following the pre-incubation, Ubiquitin-Rhodamine substrate dissolved in the assay buffer was added at the final concentration of 25 nM to each well and plates were incubated at 25° C. for an additional 75 minutes. The reaction was stopped by adding 10 mM citric acid and fluorescence was read using excitation wavelength 485 nm, emission of 535 nm. Data were analyzed using Graph Pad Prism software with a four-parameter (floating slope) fit to log concentration data to determine IC50s.

[4] = Dundee IC50 μM (avg in vitro MS assay)
[5] = avg, read-out: Dundee IC50 μM (avg in vitro MS assay)
[6] = USP30 IC50 μM (avg), Ubiquitin-Rhodamine substrate 25 nM, 1.5 nM recombinant USP30

T1 sequence (Q70CQ3 whole entry): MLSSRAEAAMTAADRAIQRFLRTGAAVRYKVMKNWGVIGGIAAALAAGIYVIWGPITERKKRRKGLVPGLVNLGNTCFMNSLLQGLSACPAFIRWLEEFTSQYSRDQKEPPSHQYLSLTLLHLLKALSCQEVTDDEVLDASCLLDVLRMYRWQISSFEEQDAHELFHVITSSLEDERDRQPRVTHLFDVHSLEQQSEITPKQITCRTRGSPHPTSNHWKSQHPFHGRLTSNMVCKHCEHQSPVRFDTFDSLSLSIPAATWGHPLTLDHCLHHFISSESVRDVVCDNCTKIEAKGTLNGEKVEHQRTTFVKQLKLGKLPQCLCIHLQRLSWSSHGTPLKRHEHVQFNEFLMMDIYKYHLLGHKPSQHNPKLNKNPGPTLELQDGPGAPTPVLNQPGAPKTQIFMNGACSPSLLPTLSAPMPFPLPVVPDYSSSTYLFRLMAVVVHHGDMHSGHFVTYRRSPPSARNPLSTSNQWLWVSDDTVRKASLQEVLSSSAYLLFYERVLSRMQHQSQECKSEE

SMILES | activity at 1 µM (USP30 [2]) [%] | IC50 (USP30 [1]; [5]) [µM] | IC50 [3, 6] [µM] | IC50 (USP30 [1]; [4]) [µM] | IC50 ([3]; read-out: USP30 IC50 μM (avg), Ubiquitin-Rhodamine substrate 25 nM, 1.5 nM recombinant USP30) [µM]
CC(C)(C)NC(=O)c1ccc(NC(=O)[C@H](Cc2ccccc2)NC(=O)c2ccc(F)cc2)cc1 [Compound I-29, (S)-N-tert-butyl-4-(2-(4-fluorobenzamido)-3-phenylpropanamido)benzamide] | > 75 | – | – | > 1 | –
CC(C)(C)N[S+]([O-])c1ccc(NC(=O)[C@H](Cc2ccccc2)NC(=O)c2ccc(F)cc2)cc1 (stereo partly drawn) [Compound I-15, N-((2S)-1-(4-(N-tert-Butylsulfinamoyl)phenylamino)-1-oxo-3-phenylpropan-2-yl)-4-fluorobenzamide] | 25 to 50 | 0.05 to 1 | – | – | –
CC(C)(C)NS(=O)(=O)c1ccc(NC(=O)C2Cc3cccnc3N2C(=O)c2ccc(F)cc2)cc1 (centres unmarked) [Compound I-57, N-(4-(N-tert-butylsulfamoyl)phenyl)-1-(4-fluorobenzoyl)-2,3-dihydro-1H-pyrrolo[2,3-b]pyridine-2-carboxamide] | > 75 | – | – | > 1 | –
CCNS(=O)(=O)c1ccc(NC(=O)[C@H](Cc2ccccc2)N(C)C(=O)c2ccc(F)cc2)cc1 [Compound I-51, (S)-N-(1-(4-(N-ethylsulfamoyl)phenylamino)-1-oxo-3-phenylpropan-2-yl)-4-fluoro-N-methylbenzamide] | > 75 | 1 to 10 | 1 to 10 | – | –
CCNS(=O)(=O)c1ccc(NC(=O)C2(NC(=O)c3ccccc3)CCc3ccccc3C2)cc1 (centres unmarked) [Compound I-47, 2-benzamido-N-(4-(N-ethylsulfamoyl)phenyl)-1,2,3,4-tetrahydronaphthalene-2-carboxamide] | > 75 | > 1 | – | – | –
CC(C)(C)NS(=O)(=O)c1ccc(NC(=O)C2(NC(=O)c3ccc(F)cc3)Cc3ccccc3C2)cc1 [Compound I-19, N-(4-(N-tert-butylsulfamoyl)phenyl)-2-(4-fluorobenzamido)-2,3-dihydro-1H-indene-2-carboxamide] | 25 to 50 | 0.05 to 1 | 0.05 to 1 | – | –
C[C@@H](NS(=O)(=O)c1ccc(NC(=O)[C@H](Cc2ccccc2)NC(=O)c2ccc(F)cc2)cc1)C(F)(F)F [Compound I-26, 4-fluoro-N-((S)-1-oxo-3-phenyl-1-(4-(N-((R)-1,1,1-trifluoropropan-2-yl)sulfamoyl)phenylamino)propan-2-yl)benzamide] | 0 to 25 | < 0.05 | 0.05 to 1 | – | –
C[C@H](NS(=O)(=O)c1ccc(NC(=O)[C@H](Cc2ccccc2)NC(=O)c2ccc(F)cc2)cc1)C1CC1 [Compound I-27, N-((S)-1-(4-(N-((S)-1-cyclopropylethyl)sulfamoyl)phenylamino)-1-oxo-3-phenylpropan-2-yl)-4-fluorobenzamide] | 0 to 25 | < 0.05 | – | – | –
CC[C@H](C)NS(=O)(=O)c1ccc(NC(=O)[C@H](Cc2ccccc2)NC(=O)c2ccc(F)cc2)cc1 [Compound I-28, N-((S)-1-((4-(N-((S)-sec-butyl)sulfamoyl)phenyl)amino)-1-oxo-3-phenylpropan-2-yl)-4-fluorobenzamide] | 0 to 25 | < 0.05 | – | – | –
CN(C(=O)[C@H](Cc1ccccc1)NC(=O)c1ccc(F)cc1)c1ccc(S(=O)(=O)NC(C)(C)C)cc1 [Compound I-36, (S)-N-(1-((4-(N-tert-butylsulfamoyl)phenyl)(methyl)amino)-1-oxo-3-phenylpropan-2-yl)-4-fluorobenzamide] | > 75 | > 1 | – | – | –
CC(C)(C)NS(=O)(=O)c1ccc(NC[C@@H](O)[C@H](Cc2ccccc2)NC(=O)c2ccc(F)cc2)cc1 [Compound I-42, N-((2S,3R)-4-(4-(N-tert-butylsulfamoyl)phenylamino)-3-hydroxy-1-phenylbutan-2-yl)-4-fluorobenzamide] | > 75 | 1 to 10 | – | – | –
CC(C)(C)N=S(C)(=O)c1ccc(NC(=O)[C@H](Cc2ccccc2)NC(=O)c2ccc(F)cc2)cc1 (stereo partly drawn) [Compound I-17, N-((2S)-1-((4-(N-(tert-butyl)-S-methylsulfonimidoyl)phenyl)amino)-1-oxo-3-phenylpropan-2-yl)-4-fluorobenzamide] | > 75 | – | – | > 1 | –
CC(C)(C)NS(=O)(=O)c1ccc(NC[C@H](O)[C@H](Cc2ccccc2)NC(=O)c2ccc(F)cc2)cc1 [Compound I-41, N-((2S,3S)-4-(4-(N-tert-butylsulfamoyl)phenylamino)-3-hydroxy-1-phenylbutan-2-yl)-4-fluorobenzamide] | 25 to 50 | 1 to 10 | 1 to 10 | – | –
CC(C)(C)NS(=O)(=O)c1cccc(NC(=O)[C@H](Cc2ccccc2)NC(=O)c2ccc(F)cc2)c1 [Compound I-68, (S)-N-(1-(3-(N-tert-butylsulfamoyl)phenylamino)-1-oxo-3-phenylpropan-2-yl)-4-fluorobenzamide] | > 75 | – | – | > 1 | –
CC(C)(C)NS(=O)(=O)c1ccc(NC(=O)C2(NC(=O)c3ccc(F)cc3)CC2c2ccccc2)cc1 (racemic) [Compound I-83, racemic-N-((E)-1-(4-(N-tert-butylsulfamoyl)phenylcarbamoyl)-2-phenylcyclopropyl)-4-fluorobenzamide] | > 75 | > 1 | – | – | –
CC(C)(C)NS(=O)(=O)c1ccc(NC(=O)C2(NC(=O)c3ccc(F)cc3)CC2c2ccccc2)cc1 (racemic) [Compound I-82, racemic-N-(Z)-(1-(4-(N-tert-butylsulfamoyl)phenylcarbamoyl)-2-phenylcyclopropyl)-4-fluorobenzamide] | > 75 | – | – | > 1 | –
CCNS(=O)(=O)c1ccc(NC(=O)[C@H](Cc2ccccc2)N(CC)C(=O)c2ccc(F)cc2)cc1 [Compound I-52, (S)-N-ethyl-N-(1-(4-(N-ethylsulfamoyl)phenylamino)-1-oxo-3-phenylpropan-2-yl)-4-fluorobenzamide] | > 75 | – | – | – | > 10

Further lines, with some results ahead:

activity at 1 µM (USP30 [2]) [%] | IC50 (USP30 [1]; [5]) [µM] | IC50 [3, 6] [µM] | SMILES | IC50 (USP30 [1]; [4]) [µM] | IC50 ([3]; read-out: USP30 IC50 μM (avg), Ubiquitin-Rhodamine substrate 25 nM, 1.5 nM recombinant USP30) [µM]
> 75 | > 1 | – | CC(C)(C)NS(=O)(=O)c1ccc(NC(=O)[C@H](Cc2ccccc2)OCc2ccc(F)cc2)cc1 [Compound I-46, (S)-N-(4-(N-tert-butylsulfamoyl)phenyl)-2-(4-fluorobenzyloxy)-3-phenylpropanamide] | – | –
50 to 75 | 1 to 10 | 1 to 10 | CC(C)(C)NS(=O)(=O)c1ccc(NC(=O)C2Cc3cnccc3CN2C(=O)c2ccc(F)cc2)cc1 (centres unmarked) [Compound I-50, N-(4-(N-tert-butylsulfamoyl)phenyl)-2-(4-fluorobenzoyl)-1,2,3,4-tetrahydro-2,6-naphthyridine-3-carboxamide] | – | –
> 75 | 1 to 10 | – | CCNS(=O)(=O)c1ccc(NC(=O)C2Cc3ccccc3CN2C(=O)c2ccc(F)cc2)cc1 (centres unmarked) [Compound I-49, N-(4-(N-ethylsulfamoyl)phenyl)-2-(4-fluorobenzoyl)-1,2,3,4-tetrahydroisoquinoline-3-carboxamide] | – | –
> 75 | > 1 | – | CC(C)(C)NS(=O)(=O)c1ccc(NC(=O)C2(NC(=O)c3ccccc3)CCc3ccccc3C2)cc1 (centres unmarked) [Compound I-48, 2-benzamido-N-(4-(N-tert-butylsulfamoyl)phenyl)-1,2,3,4-tetrahydronaphthalene-2-carboxamide] | – | –
0 to 25 | 0.05 to 1 | – | O=C(N[C@@H](Cc1cccnc1)C(=O)Nc1ccc(S(=O)(=O)NC2COC2)cc1)c1ccc(F)cc1 [Compound I-66, (S)-4-fluoro-N-(1-(4-(N-oxetan-3-ylsulfamoyl)phenylamino)-1-oxo-3-(pyridin-3-yl)propan-2-yl)benzamide] | – | –
> 75 | > 1 | – | CC(C)(C)NS(=O)(=O)c1ccc(OC[C@H](Cc2ccccc2)NC(=O)c2ccc(F)cc2)cc1 [Compound I-45, (S)-N-(1-(4-(N-tert-butylsulfamoyl)phenoxy)-3-phenylpropan-2-yl)-4-fluorobenzamide] | – | –
0 to 25 | 0.05 to 1 | 0.05 to 1 | CN1CC(NS(=O)(=O)c2ccc(NC(=O)[C@H](Cc3ccccc3)NC(=O)c3ccc(F)cc3)cc2)C1 [Compound I-65, (S)-4-fluoro-N-(1-(4-(N-(1-methylazetidin-3-yl)sulfamoyl)phenylamino)-1-oxo-3-phenylpropan-2-yl)benzamide] | – | –
> 75 | > 1 | – | CC(C)(C)NS(=O)(=O)c1ccc(NC[C@H](Cc2ccccc2)NC(=O)c2ccc(F)cc2)cc1 [Compound I-44, (S)-N-(1-(4-(N-tert-butylsulfamoyl)phenylamino)-3-phenylpropan-2-yl)-4-fluorobenzamide] | – | –
